The record followed here is patent publication US11584754B2, “Derivatives of thailanstatin A, methods of treatment and methods of synthesis thereof” (WILLIAM MARSH RICE UNIVERSITY, priority 2016, dated 2023).

SMILES strings stand for the structures. Non-standard residues stand in square brackets, D forms with d. Residues, ends and D or L forms follow the SMILES beside them. *: point of attachment. Dolaproine = CO[C@@H]([C@@H]1CCCN1)[C@@H](C)C(=O)O; Dil = CC[C@H](C)[C@H](NC)[C@@H](CC(=O)O)OC; X1 = C[C@@H](N*)[C@@H](O)c1ccccc1; NMeV = CN[C@H](C(=O)O)C(C)C

What all share (assay type): cell-based, human
One test concerns MES SA DX. Nature of the test: Cytotoxicity assay (72 hour killing assay, CellTiter-Glo), MES SA DX. The settings on record: 50% inhibitory concentration against cell growth; MES SA cell line with marked multidrug resistance; 72 hours; read-out: Cancer cell lines IC50 (nM) MES SA DX. As to the method:
(§1) Cells were cultured in a T75 flask to ˜50-80% confluency and harvested with trypsin into a single cell suspension. Five hundred (500) cells per well were seeded in tissue culture plates in 50 μL/well culture media and incubated at 37° C. for 18-24 h. Compounds were diluted as 400× final desired concentrations in DMSO. Serial dilutions in DMSO were then diluted in culture media for a final DMSO concentration of 0.25% and 50 μL/well of the final dilution was added to the cells (Vf=100 μL). Upon plating and treatment, cells were returned to the incubator for an additional 72 hours. CellTiter-Glo reagent was prepared per manufacturer's instructions and added at 100 μL/well to the cultures. CellTiter-Glo allows for relative enumeration of metabolically active cells by quantifying intracellular ATP concentrations. After 5 minutes of incubation with CellTiter-Glo at ambient room temperature, 125 μL/well of the Cell Titer glo/cell lysate solution was transferred into black assay plates, which were then read in a luminometer within 30 minutes.
(§2) MES SA and MES SA/Dx cells are uterine sarcoma. MES SA Dx cell line was generated from MES SA to achieve upregulation of MDR1.
In general terms: Cellular ATP, detected with luciferase, serves as a proxy for viable cell number.

For a further test, the system named is HEK 293T. As to the kind of experiment: Cytotoxicity assay (72 hour killing assay, CellTiter-Glo), HEK 293T. The settings on record: 50% inhibitory concentration against cell growth; human embryonic kidney cancer cell line; 72 hours; read-out: Cancer cell lines IC50 (nM) HEK 293T. As to the method:
as §1
293T cells are human embryonic kidney cell line.

The test system of a further test is MES SA. As to the kind of experiment: Cytotoxicity assay (72 hour killing assay, CellTiter-Glo), MES SA. The settings on record: 50% inhibitory concentration against cell growth; human uterine sarcoma cell line; 72 hours; read-out: Cancer cell lines IC50 (nM) MES SA. As to the method: as §1, §2

As to `CC[C@H](C)[C@@H]([C@@H](CC(=O)N1CCC[C@H]1[C@H](OC)[C@@H](C)C(=O)N[C@H](C)[C@@H](O)c1ccccc1)OC)N(C)C(=O)[C@@H](NC(=O)[C@@H](NC)C(C)C)C(C)C` [MMAE, reference compound] (H-[NMeV]V[Dil][Dolaproine]-X1), the IC50 (in general, the concentration that inhibits the measured activity by half) is 88.2 nM in the test with MES SA DX, 0.068 nM in the test on HEK 293T and 0.096 nM in the test on MES SA.
